Test results: patent US20110295343A1, “NEAR-INFRARED ELECTROMAGNETIC MODIFICATION OF CELLULAR STEADY-STATE MEMBRANE POTENTIALS” (priority 2008, published 2011)
Values joined by “and” are separate entries in the source; they are usually repeats but may differ in a detail not shown here. Identical values can stand only once.

System: MRSA (ATCC BAA-43)
Assay: MRSA/antimicrobial potentiation, CFU on TSB agar with and without antibiotic after laser (Example XXII, Experiments 1-4)
Format: cell-based, Staphylococcus aureus subsp. aureus
Conditions: for CFU/ml / AVG / CFU: agar with 30 μg/ml methicillin; for AVG: mean of plates; for CFU: replicate plates; for Meth Effect: CFU with methicillin / without; for Laser Effect (+Meth) / Laser Effect (+M): both on 30 μg/ml methicillin
Description: Four separate experiments have been performed.
Eight different laser dosages were used to treat a saline-suspension of logarithmically growing MRSA, labeled A1 to H1.
The treated and a control untreated suspension were diluted and plated in triplicate on trypic soy agar with or without 30 μg/ml methicillin After 24 hrs of growth at 37° C. colonies were counted.
CFU (colony forming units) were compared between the plates with and without methicillin for both control (untreated) and treated MRSA.
The treated and a control untreated suspension were diluted and plated in triplicate on trypic soy agar with or without 30 μg/mlmethicillin.
After 24 hrs of growth at 37° C. colonies were counted.
The treated and a control untreated suspension were diluted and plated in pentuplicate on trypic soy agar with or without 30 μg/ml methicillin.

COc1cccc(OC)c1C(=O)N[C@@H]1C(=O)N2[C@@H]1SC(C)(C)[C@@H]2C(=O)O [Methicillin]
CFU/ml (Exp#2 C2 Cont (no laser)): 1.66E+08 CFU/ml | AVG (Exp#2 C2 Cont (no laser)): 55.3 CFU | CFU (Exp#2 C2 Cont (no laser)): 42 CFU and 71 CFU and 53 CFU | Meth Effect (Exp#2 C2 Exp (laser treated)): 0.31 | CFU/ml (Exp#2 C2 Exp (laser treated)): 3.80E+07 CFU/ml | AVG (Exp#2 C2 Exp (laser treated)): 12.7 CFU | CFU (Exp#2 C2 Exp (laser treated)): 16 CFU and 12 CFU and 10 CFU | Laser Effect (+Meth) (Exp#2 D2, laser Exp / Cont): 0.04 | Meth Effect (Exp#2 D2 Cont (no laser)): 0.61 | CFU/ml (Exp#2 D2 Cont (no laser)): 1.56E+08 CFU/ml | AVG (Exp#2 D2 Cont (no laser)): 52 CFU | CFU (Exp#2 D2 Cont (no laser)): 20 CFU and 65 CFU and 71 CFU | Meth Effect (Exp#2 D2 Exp (laser treated)): 0.25 | CFU/ml (Exp#2 D2 Exp (laser treated)): 7.00E+06 CFU/ml | AVG (Exp#2 D2 Exp (laser treated)): 2.3 CFU | CFU (Exp#2 D2 Exp (laser treated)): 5 CFU and 1 CFU (2×) | Laser Effect (+Meth) (Exp#2 E2, laser Exp / Cont): 0.04 | Meth Effect (Exp#2 E2 Cont (no laser)): 1.04 | CFU/ml (Exp#2 E2 Cont (no laser)): 1.87E+08 CFU/ml | AVG (Exp#2 E2 Cont (no laser)): 62.3 CFU | CFU (Exp#2 E2 Cont (no laser)): 68 CFU and 66 CFU and 53 CFU | Meth Effect (Exp#2 E2 Exp (laser treated)): 0.24 | CFU/ml (Exp#2 E2 Exp (laser treated)): 8.00E+06 CFU/ml | AVG (Exp#2 E2 Exp (laser treated)): 2.7 CFU | CFU (Exp#2 E2 Exp (laser treated)): 2 CFU (2×) and 4 CFU | Laser Effect (+Meth) (Exp#2 F2, laser Exp / Cont): 0.22 | Meth Effect (Exp#2 F2 Cont (no laser)): 0.81 | CFU/ml (Exp#2 F2 Cont (no laser)): 2.13E+08 CFU/ml | AVG (Exp#2 F2 Cont (no laser)): 71 CFU | CFU (Exp#2 F2 Cont (no laser)): 62 CFU and 64 CFU and 87 CFU | Meth Effect (Exp#2 F2 Exp (laser treated)): 0.38 | CFU/ml (Exp#2 F2 Exp (laser treated)): 4.70E+07 CFU/ml | AVG (Exp#2 F2 Exp (laser treated)): 15.7 CFU | CFU (Exp#2 F2 Exp (laser treated)): 13 CFU and 15 CFU and 19 CFU | Laser Effect (+Meth) (Exp#2 G2, laser Exp / Cont): 0.1 | Meth Effect (Exp#2 G2 Cont (no laser)): 1.04 | CFU/ml (Exp#2 G2 Cont (no laser)): 2.50E+08 CFU/ml | AVG (Exp#2 G2 Cont (no laser)): 83.3 CFU | CFU (Exp#2 G2 Cont (no laser)): 75 CFU and 92 CFU and 83 CFU | Meth Effect (Exp#2 G2 Exp (laser treated)): 0.3 | CFU/ml (Exp#2 G2 Exp (laser treated)): 2.50E+07 CFU/ml | AVG (Exp#2 G2 Exp (laser treated)): 8.3 CFU | CFU (Exp#2 G2 Exp (laser treated)): 10 CFU and 7 CFU and 8 CFU | Laser Effect (+Meth) (Exp#2 H2, laser Exp / Cont): 0.17 | Meth Effect (Exp#2 H2 Cont (no laser)): 0.73 | CFU/ml (Exp#2 H2 Cont (no laser)): 2.30E+08 CFU/ml | AVG (Exp#2 H2 Cont (no laser)): 76.7 CFU | CFU (Exp#2 H2 Cont (no laser)): 76 CFU and 72 CFU and 82 CFU | Meth Effect (Exp#2 H2 Exp (laser treated)): 0.45 | CFU/ml (Exp#2 H2 Exp (laser treated)): 3.80E+07 CFU/ml | AVG (Exp#2 H2 Exp (laser treated)): 12.7 CFU | CFU (Exp#2 H2 Exp (laser treated)): 13 CFU (2×) and 12 CFU | Laser Effect (+M) (Exp#3 A3, laser Exp / Cont): 0.33 | Meth Effect (Exp#3 A3 Cont (no laser)): 1.03 | CFU/ml (Exp#3 A3 Cont (no laser)): 1.45E+08 CFU/ml | AVG (Exp#3 A3 Cont (no laser)): 48.4 CFU | Meth Effect (Exp#3 A3 Exp (laser treated)): 0.52 | CFU/ml (Exp#3 A3 Exp (laser treated)): 4.86E+07 CFU/ml | AVG (Exp#3 A3 Exp (laser treated)): 16.2 CFU | Laser Effect (+M) (Exp#3 B3, laser Exp / Cont): 0.27 | Meth Effect (Exp#3 B3 Cont (no laser)): 0.99 | CFU/ml (Exp#3 B3 Cont (no laser)): 2.14E+08 CFU/ml | AVG (Exp#3 B3 Cont (no laser)): 71.4 CFU | Meth Effect (Exp#3 B3 Exp (laser treated)): 0.61 | CFU/ml (Exp#3 B3 Exp (laser treated)): 5.70E+07 CFU/ml | AVG (Exp#3 B3 Exp (laser treated)): 19 CFU | Laser Effect (+M) (Exp#3 C3, laser Exp / Cont): 0.35 | Meth Effect (Exp#3 C3 Cont (no laser)): 1.01 | CFU/ml (Exp#3 C3 Cont (no laser)): 1.75E+08 CFU/ml | AVG (Exp#3 C3 Cont (no laser)): 58.4 CFU | Meth Effect (Exp#3 C3 Exp (laser treated)): 0.53 | CFU/ml (Exp#3 C3 Exp (laser treated)): 6.06E+07 CFU/ml | AVG (Exp#3 C3 Exp (laser treated)): 20.2 CFU | Laser Effect (+M) (Exp#3 D3, laser Exp / Cont): 0.07 | Meth Effect (Exp#3 D3 Cont (no laser)): 1.01 | CFU/ml (Exp#3 D3 Cont (no laser)): 1.54E+08 CFU/ml | AVG (Exp#3 D3 Cont (no laser)): 51.2 CFU | Meth Effect (Exp#3 D3 Exp (laser treated)): 0.39 | CFU/ml (Exp#3 D3 Exp (laser treated)): 1.08E+07 CFU/ml | AVG (Exp#3 D3 Exp (laser treated)): 3.6 CFU | Laser Effect (+M) (Exp#3 E3, laser Exp / Cont): 0.47 | Meth Effect (Exp#3 E3 Cont (no laser)): 0.92 | CFU/ml (Exp#3 E3 Cont (no laser)): 1.52E+08 CFU/ml | AVG (Exp#3 E3 Cont (no laser)): 50.6 CFU | Meth Effect (Exp#3 E3 Exp (laser treated)): 0.44 | CFU/ml (Exp#3 E3 Exp (laser treated)): 7.08E+07 CFU/ml | AVG (Exp#3 E3 Exp (laser treated)): 23.6 CFU | CFU (Exp#3 E3 Exp (laser treated)): 15 CFU and 24 CFU and 26 CFU and 27 CFU | Laser Effect (+M) (Exp#3 F3, laser Exp / Cont): 0.18 | Meth Effect (Exp#3 F3 Cont (no laser)): 0.73 | CFU/ml (Exp#3 F3 Cont (no laser)): 1.60E+08 CFU/ml | AVG (Exp#3 F3 Cont (no laser)): 53.2 CFU | Meth Effect (Exp#3 F3 Exp (laser treated)): 0.35 | CFU/ml (Exp#3 F3 Exp (laser treated)): 2.94E+07 CFU/ml | AVG (Exp#3 F3 Exp (laser treated)): 9.8 CFU | Laser Effect (+M) (Exp#3 G3, laser Exp / Cont): 0.12 | Meth Effect (Exp#3 G3 Cont (no laser)): 1.17 | CFU/ml (Exp#3 G3 Cont (no laser)): 2.03E+08 CFU/ml | AVG (Exp#3 G3 Cont (no laser)): 67.6 CFU | Meth Effect (Exp#3 G3 Exp (laser treated)): 0.37 | CFU/ml (Exp#3 G3 Exp (laser treated)): 2.52E+07 CFU/ml | AVG (Exp#3 G3 Exp (laser treated)): 8.4 CFU | Laser Effect (+M) (Exp#3 H3, laser Exp / Cont): 0.11 | Meth Effect (Exp#3 H3 Cont (no laser)): 1.04 | CFU/ml (Exp#3 H3 Cont (no laser)): 2.26E+08 CFU/ml | AVG (Exp#3 H3 Cont (no laser)): 75.2 CFU | Meth Effect (Exp#3 H3 Exp (laser treated)): 0.35 | CFU/ml (Exp#3 H3 Exp (laser treated)): 2.52E+07 CFU/ml | AVG (Exp#3 H3 Exp (laser treated)): 8.4 CFU | synergistic effect of NIMELS with antibiotic in growth inhibition of MRSA colonies (FIG. 17): being potentiated by sub-lethal NIMELS dosimetry
